Assay results published in patent publication US20260109712A1, “RIFAMYCINS FOR NONTUBERCULOUS MYCOBACTERIA” (priority 2022, published 2026).
Converted amounts (≈) assume the structure as drawn. One block for each compound: values may come before it.

Legend:
M. abscessus ATCC 19977 = assay: MIC assay in 96-well plate format, wild-type strain; format: cell-based, Mycobacterium abscessus; conditions: for MICWT: Table 10; for MIC: Table 15, heterocyclic aromatic carbamates, read-out: WT Mab MIC
How it was run: (§1)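 Two-fold, ten-point dilutions in 7H9 with 2% DMSO; mid-log culture diluted to OD600=0.1 (1×10^7 CFU/mL). Incubated 3 days at 37 °C, shaking 110 RPM; growth = Day 3 minus Day 0 OD600, expressed as percentage of drug-free growth and plotted against concentration. Two biological replicates.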

[1] = Plasma protein binding assay (rapid equilibrium dialysis); format: in vitro ADME
Description: DMSO stocks were spiked into plasma to a concentration of 10,000 ng/mL. 200 μL of spiked plasma was pipetted into the sample chamber of the rapid equilibrium dialysis (RED) cartridge. 350 μL of PBS was added to the adjacent cartridge. The plate containing the RED was sealed and incubated at 37° C. on the thermomixer at 300 RPM for 4 h. After incubation, 50 μL aliquots of plasma were removed and added to 50 μL of blank plasma in a deep well plate (1:1). Similarly, 50 μL aliquots of PBS were removed and added to 50 μL of blank plasma. This created an identical matrix between buffer and non-buffer samples. Samples were processed and quantified as specified in the LC-MS/MS analytical method.

Mycobacterium abscessus = assay: MIC against Mycobacterium abscessus (strain not given); format: cell-based; conditions: Table 13; read-out: Mab MIC
Δarr M. abscessus = assay: MIC assay, isogenic arr-deleted strain; format: cell-based, Mycobacterium abscessus; conditions: Table 10
How it was run: as §1

[2] = Mouse pharmacokinetics studies; format: in vivo, CD-1 mice; conditions: for AUCp.o.: po; for C-25 deacylation i.v. / C-25 deacylation p.o.: AUC25-O-desacetyl RFB/AUCcompound × 100%, n.d. = undetectable
Description: Blood was captured in CB300 blood collection tubes containing K2EDTA and stored on ice. Plasma was recovered after centrifugation and stored at −80° C. until analyzed by high pressure liquid chromatography coupled to tandem mass spectrometry (LC-MS/MS). Pharmacokinetic parameters were calculated using non-compartmental pharmacokinetic analysis. […] Extracts were vortexed for 5 minutes and centrifuged at 4000 RPM for 5 minutes. 75 μL of supernatant was transferred for LC-MS/MS analysis and diluted with 75 μL of Milli-Q deionized water. Rifabutin was purchased from Carbosynth. C25-desacetyl rifabutin and rifabutin-d7 were purchased from Toronto Research Chemical. Verapamil was purchased from Sigma-Aldrich. […] Multiple-reaction monitoring of parent/daughter transitions in electrospray positive-ionization mode was used to quantify all analytes. […] Data processing was performed using Analyst software (version 1.6.2; Applied Biosystems Sciex).

[3] = p.o. doses of 10 mg/kg, Table 12

Structure (SMILES): COc1ccc(C(=O)O[C@H]2[C@H](C)[C@H](O)[C@H](C)[C@@H](O)[C@@H](C)/C=C/C=C(\C)C(=O)NC3=C4NC5(CCN(CC(C)C)CC5)N=C4c4c(c(O)c(C)c5c4C(=O)[C@@](C)(O/C=C/[C@H](OC)[C@H]2C)O5)C3=O)cc1 [UMN10]
MICWT (M. abscessus ATCC 19977): 0.06 µM
ƒu [1]: 0.02%
plasma unbound fraction ([1]; plasma): 0%
MIC (Mycobacterium abscessus): 0.06 µM (≈ 0.0563 µg/mL)
MICΔorr (Δarr M. abscessus): 0.065 µM

Structure (SMILES): CO[C@H]1/C=C/O[C@@]2(C)Oc3c(C)c(O)c4c(c3C2=O)C2=NC3(CCN(CC(C)C)CC3)NC2=C(NC(=O)/C(C)=C/C=C/[C@H](C)[C@H](O)[C@@H](C)[C@@H](O)[C@@H](C)[C@H](OC(=O)c2ccc(F)cc2)[C@@H]1C)C4=O [UMN11]
MICWT (M. abscessus ATCC 19977): 0.13 µM
ƒu [1]: 0.02%
plasma unbound fraction ([1]; plasma): 0.02%
MIC (Mycobacterium abscessus): 0.13 µM (≈ 0.121 µg/mL)
MICΔorr (Δarr M. abscessus): 0.069 µM

Structure (SMILES): CO[C@H]1/C=C/O[C@@]2(C)Oc3c(C)c(O)c4c(c3C2=O)C2=NC3(CCN(CC(C)C)CC3)NC2=C(NC(=O)/C(C)=C/C=C/[C@H](C)[C@H](O)[C@@H](C)[C@@H](O)[C@@H](C)[C@H](OC(=O)c2ccc(Cl)cc2)[C@@H]1C)C4=O [UMN12]
MICWT (M. abscessus ATCC 19977): 0.13 µM
ƒu [1]: 0.01%
plasma unbound fraction ([1]; plasma): 0.01%
MIC (Mycobacterium abscessus): 0.13 µM (≈ 0.123 µg/mL)
MICΔorr (Δarr M. abscessus): 0.22 µM

Structure (SMILES): CO[C@H]1/C=C/O[C@@]2(C)Oc3c(C)c(O)c4c(c3C2=O)C2=NC3(CCN(CC(C)C)CC3)NC2=C(NC(=O)/C(C)=C/C=C/[C@H](C)[C@H](O)[C@@H](C)[C@@H](O)[C@@H](C)[C@H](OC(=O)c2ccc(C(F)(F)F)cc2)[C@@H]1C)C4=O [UMN13]
MICWT (M. abscessus ATCC 19977): 0.24 µM
ƒu [1]: 0%
plasma unbound fraction ([1]; plasma): 0%
MIC (Mycobacterium abscessus): 0.24 µM (≈ 0.235 µg/mL)
MICΔorr (Δarr M. abscessus): 0.66 µM

Structure (SMILES): CO[C@H]1/C=C/O[C@@]2(C)Oc3c(C)c(O)c4c(c3C2=O)C2=NC3(CCN(CC(C)C)CC3)NC2=C(NC(=O)/C(C)=C/C=C/[C@H](C)[C@H](O)[C@@H](C)[C@@H](O)[C@@H](C)[C@H](OC(=O)Nc2ccccc2)[C@@H]1C)C4=O [UMN14]
MICWT (M. abscessus ATCC 19977): 0.027 µM
MIC (M. abscessus ATCC 19977): 0.027 µM (≈ 0.025 µg/mL)
ƒu [1]: 0.1%
plasma unbound fraction ([1]; plasma): 0.08%
MICΔorr (Δarr M. abscessus): 0.042 µM
ƒAUC/MIC ([2]; Table 18): 0.8
CL ([2]; mouse, in vivo): 2.40 mL/min/kg
F ([2]; mouse, in vivo): 38%
Vd ([2]; mouse, in vivo): 1.93 L/kg
AUCp.o. ([2]; mouse, in vivo): 25625 ng·h/mL

Structure (SMILES): CO[C@H]1/C=C/O[C@@]2(C)Oc3c(C)c(O)c4c(c3C2=O)C2=NC3(CCN(CC(C)C)CC3)NC2=C(NC(=O)/C(C)=C/C=C/[C@H](C)[C@H](O)[C@@H](C)[C@@H](O)[C@@H](C)[C@H](OC(=O)Nc2nncs2)[C@@H]1C)C4=O [UMN69]
MICWT (M. abscessus ATCC 19977): 0.026 µM
MIC (M. abscessus ATCC 19977): 0.026 µM (≈ 0.0242 µg/mL)
ƒu [1]: 5.3%
plasma unbound fraction ([1]; plasma): 5.30%
MICΔorr (Δarr M. abscessus): 0.027 µM
ƒAUC/MIC ([2]; Table 18): 26.5
CL ([2]; mouse, in vivo): 6.19 mL/min/kg
F ([2]; mouse, in vivo): 45%
Vd ([2]; mouse, in vivo): 1.14 L/kg
AUCp.o. ([2]; mouse, in vivo): 12103 ng·h/mL

Structure (SMILES): CO[C@H]1/C=C/O[C@@]2(C)Oc3c(C)c(O)c4c(c3C2=O)C2=NC3(CCN(CC(C)C)CC3)NC2=C(NC(=O)/C(C)=C/C=C/[C@H](C)[C@H](O)[C@@H](C)[C@@H](O)[C@@H](C)[C@H](OC(=O)N2CCOC(C)(C)C2)[C@@H]1C)C4=O [UMN71]
MICWT (M. abscessus ATCC 19977): 0.076 µM
plasma unbound fraction ([1]; Table 10): 0.39%
MICΔorr (Δarr M. abscessus): 0.032 µM

Structure (SMILES): CCOC(=O)C1CN(C(=O)O[C@H]2[C@H](C)[C@H](O)[C@H](C)[C@@H](O)[C@@H](C)/C=C/C=C(\C)C(=O)NC3=C4NC5(CCN(CC(C)C)CC5)N=C4c4c(c(O)c(C)c5c4C(=O)[C@@](C)(O/C=C/[C@H](OC)[C@H]2C)O5)C3=O)CCO1 (stereo partly shown) [UMN72]
MICWT (M. abscessus ATCC 19977): 0.082 µM
plasma unbound fraction ([1]; Table 10): 0.75%
MICΔorr (Δarr M. abscessus): 0.040 µM

Structure (SMILES): CCN1CCN(C(=O)O[C@H]2[C@H](C)[C@H](O)[C@H](C)[C@@H](O)[C@@H](C)/C=C/C=C(\C)C(=O)NC3=C4NC5(CCN(CC(C)C)CC5)N=C4c4c(c(O)c(C)c5c4C(=O)[C@@](C)(O/C=C/[C@H](OC)[C@H]2C)O5)C3=O)CC1 [UMN73]
MICWT (M. abscessus ATCC 19977): 0.1 µM
plasma unbound fraction ([1]; Table 10): 0.65%
MICΔorr (Δarr M. abscessus): 0.052 µM

Structure (SMILES): CO[C@H]1/C=C/O[C@@]2(C)Oc3c(C)c(O)c4c(c3C2=O)C2=NC3(CCN(CC(C)C)CC3)NC2=C(NC(=O)/C(C)=C/C=C/[C@H](C)[C@H](O)[C@@H](C)[C@@H](O)[C@@H](C)[C@H](OC(=O)NCc2cn(Cc3ccccc3)nn2)[C@@H]1C)C4=O [UMN85]
MICWT (M. abscessus ATCC 19977): 0.027 µM
plasma unbound fraction ([1]; Table 10): 0.30%
MICΔorr (Δarr M. abscessus): 0.025 µM

ƒu [1]: 9.8%
MIC (Mycobacterium abscessus): 0.057 µM (≈ 0.0519 µg/mL)
Structure (SMILES): CO[C@H]1/C=C/O[C@@]2(C)Oc3c(C)c(O)c4c(c3C2=O)C2=NC3(CCN(CC(C)C)CC3)NC2=C(NC(=O)/C(C)=C/C=C/[C@H](C)[C@H](O)[C@@H](C)[C@@H](O)[C@@H](C)[C@H](OC(=O)c2ncccn2)[C@@H]1C)C4=O [UMN92]

ƒu [1]: 1.6%
MIC (Mycobacterium abscessus): 0.057 µM (≈ 0.0522 µg/mL)
Structure (SMILES): CO[C@H]1/C=C/O[C@@]2(C)Oc3c(C)c(O)c4c(c3C2=O)C2=NC3(CCN(CC(C)C)CC3)NC2=C(NC(=O)/C(C)=C/C=C/[C@H](C)[C@H](O)[C@@H](C)[C@@H](O)[C@@H](C)[C@H](OC(=O)c2cncs2)[C@@H]1C)C4=O [UMN93]

Structure (SMILES): CO[C@H]1/C=C/O[C@@]2(C)Oc3c(C)c(O)c4c(c3C2=O)C2=NC3(CCN(CC(C)C)CC3)NC2=C(NC(=O)/C(C)=C/C=C/[C@H](C)[C@H](O)[C@@H](C)[C@@H](O)[C@@H](C)[C@H](OC(=O)Nc2ccncc2)[C@@H]1C)C4=O [UMN105]
MIC (M. abscessus ATCC 19977): 0.025 µM (≈ 0.0231 µg/mL)
ƒu [1]: 2.0%
CL ([2]; mouse, in vivo): 7.57 mL/min/kg
F ([2]; mouse, in vivo): 63%
Vd ([2]; mouse, in vivo): 3.78 L/kg
ƒAUC/MIC ([2]; mouse, in vivo): 9.4
AUCp.o. ([2]; mouse, in vivo): 14210 ng·h/mL

ƒu [1]: 12.7%
MIC (Mycobacterium abscessus): 0.051 µM (≈ 0.0465 µg/mL)
Structure (SMILES): CO[C@H]1/C=C/O[C@@]2(C)Oc3c(C)c(O)c4c(c3C2=O)C2=NC3(CCN(CC(C)C)CC3)NC2=C(NC(=O)/C(C)=C/C=C/[C@H](C)[C@H](O)[C@@H](C)[C@@H](O)[C@@H](C)[C@H](OC(=O)c2cccnn2)[C@@H]1C)C4=O [UMN111]

Structure (SMILES): CO[C@H]1/C=C/O[C@@]2(C)Oc3c(C)c(O)c4c(c3C2=O)C2=NC3(CCN(CC(C)C)CC3)NC2=C(NC(=O)/C(C)=C/C=C/[C@H](C)[C@H](O)[C@@H](C)[C@@H](O)[C@@H](C)[C@H](OC(=O)c2ccccc2)[C@@H]1C)C4=O [drawing 217]
plasma unbound fraction ([1]; Table 12): 0.03%
C-25 deacylation i.v. [2]: 0.03%
C-25 deacylation p.o. [2]: 0.008%
CL ([2]; Table 12): 2.4 mL/min/kg
Vd ([2]; Table 12): 2.9 L/kg
t1/2 ([2]; Table 12): 13.8 h
ƒAUC/MIC [2, 3]: 0.08

Structure (SMILES): CO[C@H]1/C=C/O[C@@]2(C)Oc3c(C)c(O)c4c(c3C2=O)C2=NC3(CCN(CC(C)C)CC3)NC2=C(NC(=O)/C(C)=C/C=C/[C@H](C)[C@H](O)[C@@H](C)[C@@H](O)[C@@H](C)[C@H](OC(=O)Nc2ccccc2)[C@@H]1C)C4=O [drawing 220]
plasma unbound fraction ([1]; Table 12): 0.0008%
C-25 deacylation i.v. [2]: 0.08%
C-25 deacylation p.o. [2]: 0.001%
CL ([2]; Table 12): 2.4 mL/min/kg
Vd ([2]; Table 12): 1.9 L/kg
t1/2 ([2]; Table 12): 9.3 h
ƒAUC/MIC [2, 3]: 0.43

Structure (SMILES): CO[C@H]1/C=C/O[C@@]2(C)Oc3c(C)c(O)c4c(c3C2=O)C2=NC3(CCN(CC(C)C)CC3)NC2=C(NC(=O)/C(C)=C/C=C/[C@H](C)[C@H](O)[C@@H](C)[C@@H](O)[C@@H](C)[C@H](OC(=O)c2cccnc2)[C@@H]1C)C4=O [drawing 222]
CL ([2]; Table 12): 3.0 mL/min/kg
Vd ([2]; Table 12): 1.6 L/kg
ƒAUC/MIC [2, 3]: 28.2
